The target in this experiment is T1, Calpain-1 catalytic subunit (Sus scrofa, UniProt P35750).
T1 sequence (P35750 whole entry): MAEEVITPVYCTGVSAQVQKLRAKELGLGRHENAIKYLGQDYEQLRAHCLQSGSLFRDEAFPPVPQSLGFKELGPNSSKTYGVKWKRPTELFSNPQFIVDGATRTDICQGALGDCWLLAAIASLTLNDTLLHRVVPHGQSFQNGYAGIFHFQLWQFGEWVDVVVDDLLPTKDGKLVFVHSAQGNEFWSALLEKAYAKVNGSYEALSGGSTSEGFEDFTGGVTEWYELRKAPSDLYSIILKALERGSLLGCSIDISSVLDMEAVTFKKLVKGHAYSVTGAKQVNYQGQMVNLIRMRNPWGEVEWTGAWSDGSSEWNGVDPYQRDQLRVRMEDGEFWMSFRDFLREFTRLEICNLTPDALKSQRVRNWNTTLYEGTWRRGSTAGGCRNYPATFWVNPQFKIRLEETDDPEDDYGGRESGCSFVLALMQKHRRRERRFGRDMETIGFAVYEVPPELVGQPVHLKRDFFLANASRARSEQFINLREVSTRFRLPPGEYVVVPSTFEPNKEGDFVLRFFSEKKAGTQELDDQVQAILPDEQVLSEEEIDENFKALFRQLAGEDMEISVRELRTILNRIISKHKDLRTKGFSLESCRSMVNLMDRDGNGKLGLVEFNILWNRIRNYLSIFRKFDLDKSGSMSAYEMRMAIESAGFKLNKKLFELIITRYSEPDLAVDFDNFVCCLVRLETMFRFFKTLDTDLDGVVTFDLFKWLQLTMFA
The experiment can be described thus: Inhibition of pig erythrocyte mu-calpain by fluorometric assay.

Residues, ends and D or L forms follow the SMILES beside them. *: point of attachment. Cbz = O=C(OCc1ccccc1)*

Molecule `CC(C)[C@H](NC(=O)OCc1ccccc1)C(=O)N[C@H](C=O)Cc1ccccc1` (Cbz-Val-Phe-aldehyde) displayed a Ki of 10 nM.
Take `CC(C)C[C@H](NC(=O)CCC1CCCCC1)C(=O)NC(Cc1ccccc1)C(=O)C(=O)O` (mixture of isomers): the affinity corresponds to a Ki of 50 nM.
In turn, `CC(C)C[C@H](NC(=O)CC1c2ccccc2-c2ccccc21)C(=O)NC(Cc1ccccc1)C(=O)C(=O)O` (mixture of isomers) displayed a Ki of 8 nM.
In the case of `COC(=O)C(=O)C(Cc1ccccc1)NC(=O)[C@H](CC(C)C)NC(=O)CC12CC3CC(CC(C3)C1)C2` (mixture of isomers), the affinity, expressed as Ki, was 450 nM.
Regarding `COC(=O)C(=O)C(Cc1ccccc1)NC(=O)[C@H](CC(C)C)NC(=O)C(c1ccccc1)c1ccccc1` (mixture of isomers), affinity was put at a Ki of 944 nM.
Consider `CC(C)C[C@H](NC(=O)C(c1ccccc1)c1ccccc1)C(=O)NC(Cc1ccccc1)C(=O)C(=O)O` (mixture of isomers), for which the affinity corresponds to a Ki of 108 nM.
The figure for `CC(C)C[C@H](NC(=O)CC(c1ccccc1)c1ccccc1)C(=O)NC(Cc1ccccc1)C(=O)C(=O)O` (mixture of isomers) is 63 nM; for `COC(=O)C(=O)C(Cc1ccccc1)NC(=O)[C@H](CC(C)C)NC(=O)CC1c2ccccc2-c2ccccc21` (mixture of isomers) it is 1200 nM; for `CC(C)C[C@H](NC(=O)CC12CC3CC(CC(C3)C1)C2)C(=O)NC(Cc1ccccc1)C(=O)C(=O)O` (mixture of isomers) it is 41 nM.
As for `COC(=O)C(=O)C(Cc1ccccc1)NC(=O)[C@H](CC(C)C)NC(=O)CCC1CCCCC1` (mixture of isomers), the figure is 1050 nM.
